Results as given in PubChem BioAssay AID1745844 (Carcinogenic Potency Database (CPDB), 2022).
Active and inactive are the calls of the source. No rule for the calls is given here.

Tested on: rodent lifetime carcinogenesis bioassay, tumor incidence TD50
Assay: chronic cancer bioassays in animals – CPDB, compiled studies (AID 1745844)

O=S(=O)(O)NC1CCCCC1
TD50 (monkey, strain Cynomolgus [Macaca fascicularis], both sexes, in feed, site: liver, lesion: hepatocellular carcinoma, dosed 1238 weeks, study length 1238 weeks): 1250 mg/kg/day
TD50 (monkey, strain Cynomolgus [Macaca fascicularis], both sexes, in feed, site: prostate, lesion: adenocarcinoma, dosed 1238 weeks, study length 1238 weeks): 35.6 mg/kg/day
TD50 (monkey, strain Rhesus [Macaca mulatta], both sexes, in feed, site: any site (literature study), lesion: malignant tumor, dosed 1251 weeks, study length 1251 weeks): 3160 mg/kg/day
TD50 (monkey, strain Rhesus [Macaca mulatta], both sexes, in feed, site: colon, lesion: adenocarcinoma, dosed 1251 weeks, study length 1251 weeks): 764 mg/kg/day
TD50 (monkey, strain Rhesus [Macaca mulatta], both sexes, in feed, site: thyroid gland, lesion: papillary adenoma, dosed 1251 weeks, study length 1251 weeks): 182 mg/kg/day
TD50 (mouse, strain (C3H x RIII)F1 (MTV+), males, in drinking water, site: any site (literature study), lesion: several types, types named in the paper, dosed 104 weeks, study length 104 weeks): 772 mg/kg/day
TD50 (mouse, strain (C3H x RIII)F1 (MTV+), males, in drinking water, site: liver, lesion: several types, types named in the paper, dosed 104 weeks, study length 104 weeks): 1420 mg/kg/day
TD50 (mouse, strain (C3H x RIII)F1 (MTV+), males, in drinking water, site: lung, lesion: several types, types named in the paper, dosed 104 weeks, study length 104 weeks): 4380 mg/kg/day
carcinogen call (mouse, strain ASH-CS1, females, in feed, site: liver, lesion: one or several types, types not named, dosed 80 weeks, study length 82 weeks): negative (inactive)
TD50 (mouse, strain ASH-CS1, females, in feed, site: lung, lesion: adenoma, dosed 80 weeks, study length 82 weeks): 228000 mg/kg/day (inactive)
TD50 (mouse, strain ASH-CS1, females, in feed, site: reticuloendothelium, lesion: lymphosarcoma, dosed 80 weeks, study length 82 weeks): 16700 mg/kg/day (inactive)
carcinogen call (mouse, strain ASH-CS1, males, in feed, site: liver, lesion: one or several types, types not named, dosed 80 weeks, study length 82 weeks): negative (inactive)
carcinogen call (mouse, strain ASH-CS1, males, in feed, site: lung, lesion: adenoma, dosed 80 weeks, study length 82 weeks): negative (inactive)
TD50 (mouse, strain RIII (MTV+), males, in drinking water, site: any site (literature study), lesion: several types, types named in the paper, dosed 104 weeks, study length 104 weeks): 4670 mg/kg/day
TD50 (mouse, strain RIII (MTV+), males, in drinking water, site: lung, lesion: several types, types named in the paper, dosed 104 weeks, study length 104 weeks): 4670 mg/kg/day
carcinogen call (mouse, strain Swiss albino, females, in feed, site: liver, lesion: hepatoma, dosed 76 weeks, study length 76 weeks): negative (inactive)
carcinogen call (mouse, strain Swiss, females, in feed, site: urinary bladder, lesion: anaplastic carcinoma, dosed 91 weeks, study length 91 weeks): negative (inactive)
carcinogen call (mouse, strain Swiss, males, in feed, site: urinary bladder, lesion: one or several types, types not named, dosed 91 weeks, study length 91 weeks): negative (inactive)
TD50 (mouse, strain XVII/G, females, in drinking water, site: any site (literature study), lesion: several types, types named in the paper, dosed 104 weeks, study length 104 weeks): 587 mg/kg/day
TD50 (mouse, strain XVII/G, females, in drinking water, site: liver, lesion: several types, types named in the paper, dosed 104 weeks, study length 104 weeks): 16000 mg/kg/day
TD50 (mouse, strain XVII/G, females, in drinking water, site: lung, lesion: several types, types named in the paper, dosed 104 weeks, study length 104 weeks): 587 mg/kg/day
TD50 (rat, strain Sprague-Dawley, both sexes, in feed, site: any site (literature study), lesion: malignant tumor, dosed 130 weeks, study length 130 weeks): 30700 mg/kg/day (inactive)
carcinogen call (rat, strain Sprague-Dawley, both sexes, in feed, site: urinary bladder, lesion: papilloma, dosed 130 weeks, study length 130 weeks): negative (inactive)
carcinogen call (rat, strain Sprague-Dawley, both sexes, in feed, site: urinary bladder, lesion: transitional-cell carcinoma, dosed 130 weeks, study length 130 weeks): negative (inactive)
TD50 (rat, strain Wistar, both sexes, in feed, site: urinary bladder, lesion: one or several types, types not named, dosed 104 weeks, study length 104 weeks): 83900 mg/kg/day

CN(CCO)N=O
TD50 (rat, strain Fischer 344, males, by gavage, site: liver, lesion: hemangiosarcoma, dosed 69 weeks, study length 69 weeks): 8.97 mg/kg/day
TD50 (rat, strain Fischer 344, males, by gavage, site: liver, lesion: hepatocellular carcinoma, dosed 69 weeks, study length 69 weeks): 1.29 mg/kg/day
TD50 (rat, strain Fischer 344, males, by gavage, site: nasal cavity, lesion: squamous-cell carcinoma, dosed 69 weeks, study length 69 weeks): 2.06 mg/kg/day
TD50 (rat, strain Fischer 344, males, by gavage, site: nasal cavity, lesion: squamous-cell papilloma, dosed 69 weeks, study length 69 weeks): 8.97 mg/kg/day

CC(=O)CN(CC(C)=O)N=O
TD50 (rat, strain Fischer 344, females, by gavage, site: liver, lesion: hepatocellular carcinoma, dosed 30 weeks, study length 95 weeks): 0.684 mg/kg/day
TD50 (rat, strain Fischer 344, females, in drinking water, site: liver, lesion: hemangiosarcoma, dosed 50 weeks, study length 75 weeks): 0.892 mg/kg/day
TD50 (rat, strain Fischer 344, females, in drinking water, site: liver, lesion: hepatocellular carcinoma, dosed 50 weeks, study length 75 weeks): 0.582 mg/kg/day
TD50 (rat, strain Fischer 344, females, in drinking water, site: liver, lesion: several types, types named in the paper, dosed 50 weeks, study length 75 weeks): 0.232 mg/kg/day
TD50 (rat, strain Fischer 344, females, in drinking water, site: lung, lesion: several types, types named in the paper, dosed 50 weeks, study length 75 weeks): 0.399 mg/kg/day
TD50 (rat, strain MRC-Wistar, males, by gavage, site: colorectum, lesion: one or several types, types not named, dosed 104 weeks, study length 104 weeks): 1.56 mg/kg/day
TD50 (rat, strain MRC-Wistar, males, by gavage, site: liver, lesion: one or several types, types not named, dosed 104 weeks, study length 104 weeks): 1.56 mg/kg/day
TD50 (rat, strain MRC-Wistar, males, by gavage, site: lung, lesion: one or several types, types not named, dosed 104 weeks, study length 104 weeks): 1.92 mg/kg/day
TD50 (rat, strain MRC-Wistar, males, by gavage, site: nasal cavity, lesion: one or several types, types not named, dosed 104 weeks, study length 104 weeks): 1.56 mg/kg/day
TD50 (rat, strain MRC-Wistar, males, by gavage, site: prostate, lesion: carcinoma, dosed 74 weeks, study length 74 weeks): 1.53 mg/kg/day
TD50 (rat, strain MRC-Wistar, males, by gavage, site: prostate, lesion: squamous-cell carcinoma, keratinized, dosed 104 weeks, study length 104 weeks): 2.41 mg/kg/day
TD50 (rat, strain MRC-Wistar, males, by gavage, site: thyroid gland, lesion: one or several types, types not named, dosed 104 weeks, study length 104 weeks): 3.16 mg/kg/day
TD50 (rat, strain MRC-Wistar, males, by gavage, site: urethra, lesion: several types, types named in the paper, dosed 104 weeks, study length 104 weeks): 0.891 mg/kg/day
TD50 (rat, strain MRC, females, by gavage, site: any site (literature study), lesion: one or several types, types not named, dosed 73 weeks, study length 77 weeks): 0.171 mg/kg/day
TD50 (rat, strain MRC, females, by gavage, site: liver, lesion: several types, types named in the paper, dosed 73 weeks, study length 77 weeks): 0.283 mg/kg/day
TD50 (rat, strain MRC, females, by gavage, site: lung, lesion: adenoma, dosed 73 weeks, study length 77 weeks): 14 mg/kg/day
TD50 (rat, strain MRC, females, by gavage, site: nasal and paranasal cavity, lesion: several types, types named in the paper, dosed 73 weeks, study length 77 weeks): 14 mg/kg/day
TD50 (rat, strain MRC, females, by gavage, site: thyroid gland, lesion: several types, types named in the paper, dosed 73 weeks, study length 77 weeks): 1.39 mg/kg/day
TD50 (rat, strain MRC, males, by gavage, site: any site (literature study), lesion: one or several types, types not named, dosed 72 weeks, study length 80 weeks): 0.0995 mg/kg/day
TD50 (rat, strain MRC, males, by gavage, site: colon, lesion: several types, types named in the paper, dosed 72 weeks, study length 80 weeks): 1.6 mg/kg/day
TD50 (rat, strain MRC, males, by gavage, site: liver, lesion: several types, types named in the paper, dosed 72 weeks, study length 80 weeks): 0.989 mg/kg/day
TD50 (rat, strain MRC, males, by gavage, site: lung, lesion: several types, types named in the paper, dosed 72 weeks, study length 80 weeks): 1.1 mg/kg/day
TD50 (rat, strain MRC, males, by gavage, site: nasal and paranasal cavity, lesion: several types, types named in the paper, dosed 72 weeks, study length 80 weeks): 1.23 mg/kg/day
TD50 (rat, strain MRC, males, by gavage, site: prostate, lesion: squamous-cell carcinoma, dosed 72 weeks, study length 80 weeks): 2.21 mg/kg/day
TD50 (rat, strain MRC, males, by gavage, site: thyroid gland, lesion: several types, types named in the paper, dosed 72 weeks, study length 80 weeks): 0.968 mg/kg/day
TD50 (rat, strain MRC, males, by gavage, site: urethra, lesion: papilloma, dosed 72 weeks, study length 80 weeks): 0.878 mg/kg/day

CCN(Cc1cccc(S(=O)(=O)O)c1)c1ccc(C(=C2C=CC(=[N+](CC)Cc3cccc(S(=O)(=O)[O-])c3)C=C2)c2ccc(S(=O)(=O)O)cc2)cc1
TD50 (mouse, strain C3HeB/FeJ, females, in feed, site: any site (literature study), lesion: malignant tumor, dosed 104 weeks, study length 104 weeks): 152000 mg/kg/day (inactive)
TD50 (mouse, strain C3HeB/FeJ, females, in feed, site: any site (literature study), lesion: several types, types named in the paper, dosed 104 weeks, study length 104 weeks): 148000 mg/kg/day
TD50 (mouse, strain C3HeB/FeJ, females, in feed, site: lung, lesion: several types, types named in the paper, dosed 104 weeks, study length 104 weeks): 43800 mg/kg/day
TD50 (mouse, strain C3HeB/FeJ, males, in feed, site: any site (literature study), lesion: malignant tumor, dosed 104 weeks, study length 104 weeks): 49300 mg/kg/day (inactive)
TD50 (mouse, strain C3HeB/FeJ, males, in feed, site: any site (literature study), lesion: several types, types named in the paper, dosed 104 weeks, study length 104 weeks): 318000 mg/kg/day
TD50 (mouse, strain C3HeB/FeJ, males, in feed, site: liver, lesion: several types, types named in the paper, dosed 104 weeks, study length 104 weeks): 18900 mg/kg/day
TD50 (mouse, strain C3HeB/FeJ, males, in feed, site: lung, lesion: several types, types named in the paper, dosed 104 weeks, study length 104 weeks): 58200 mg/kg/day
carcinogen call (rat, strain Not specified, males, in feed, site: any site (literature study), lesion: one or several types, types not named, dosed 65 weeks, study length 65 weeks): negative (inactive)
carcinogen call (rat, strain Osborne-Mendel, females, in feed, site: any site (literature study), lesion: malignant tumor, dosed 104 weeks, study length 104 weeks): negative (inactive)
carcinogen call (rat, strain Osborne-Mendel, females, in feed, site: any site (literature study), lesion: several types, types named in the paper, dosed 104 weeks, study length 104 weeks): negative (inactive)
carcinogen call (rat, strain Osborne-Mendel, females, in feed, site: liver, lesion: one or several types, types not named, dosed 104 weeks, study length 104 weeks): negative (inactive)
carcinogen call (rat, strain Osborne-Mendel, males, in feed, site: any site (literature study), lesion: malignant tumor, dosed 104 weeks, study length 104 weeks): negative (inactive)
carcinogen call (rat, strain Osborne-Mendel, males, in feed, site: any site (literature study), lesion: several types, types named in the paper, dosed 104 weeks, study length 104 weeks): negative (inactive)
carcinogen call (rat, strain Osborne-Mendel, males, in feed, site: liver, lesion: hepatocellular adenoma, dosed 104 weeks, study length 104 weeks): negative (inactive)
TD50 (rat, strain Wistar, both sexes, in feed, site: cecum, lesion: malignant lymphoma, dosed 95 weeks, study length 95 weeks): 5640 mg/kg/day

ClCOCC(COCCl)OCCl
TD50 (mouse, strain Ha/ICR, females, i.p., site: abdomen, lesion: sarcoma, dosed 76 weeks, study length 76 weeks): 3.44 mg/kg/day

CC(=O)Nc1ccc(CC(=O)O)cc1
carcinogen call (mouse, strain B6C3F1, females, in feed, site: liver, lesion: hepatocellular adenoma, dosed 78 weeks, study length 78 weeks): negative (inactive)
carcinogen call (mouse, strain B6C3F1, females, in feed, site: liver, lesion: hepatocellular carcinoma, dosed 78 weeks, study length 78 weeks): negative (inactive)
carcinogen call (mouse, strain B6C3F1, females, in feed, site: lung, lesion: several types, types named in the paper, dosed 78 weeks, study length 78 weeks): negative (inactive)
carcinogen call (mouse, strain B6C3F1, males, in feed, site: liver, lesion: hepatocellular adenoma, dosed 78 weeks, study length 78 weeks): negative (inactive)
TD50 (mouse, strain B6C3F1, males, in feed, site: lung, lesion: alveolar/bronchiolar adenoma, dosed 78 weeks, study length 78 weeks): 27700 mg/kg/day (inactive)
TD50 (mouse, strain B6C3F1, males, in feed, site: lung, lesion: alveolar/bronchiolar carcinoma, dosed 78 weeks, study length 78 weeks): 56100 mg/kg/day (inactive)
carcinogen call (rat, strain Fischer 344, females, in feed, site: liver, lesion: several types, types named in the paper, dosed 104 weeks, study length 104 weeks): negative (inactive)
carcinogen call (rat, strain Fischer 344, males, in feed, site: liver, lesion: hepatocellular adenoma, dosed 104 weeks, study length 104 weeks): negative (inactive)
carcinogen call (rat, strain Fischer 344, males, in feed, site: liver, lesion: hepatocellular carcinoma, dosed 104 weeks, study length 104 weeks): negative (inactive)
